In a compilation of properties of binary mixtures (doi:10.1021/acs.jced.9b01032):

Assay: xn = mol fraction of the nth substance listed
Settings: 93.2 kPa

NC=O + CCCC[n+]1ccn(C)c1.F[P-](F)(F)(F)(F)F
x2 = 0
Settings | speed of sound [m/s]
288.15 K | 1619
298.15 K | 1598
303.15 K | 1588

CCCC[n+]1ccn(C)c1.F[P-](F)(F)(F)(F)F + NC=O
speed of sound [m/s]
Settings | 288.15 K | 293.15 K | 298.15 K | 303.15 K
x1 = 0.0502 | 1587 | 1576 | 1565 | 1554
x1 = 0.0995 | 1563 | 1552 | – | 1529
x1 = 0.1488 | 1545 | 1534 | 1522 | 1511
x1 = 0.2006 | – | – | 1508 | 1497
x1 = 0.3001 | 1513 | 1501 | – | 1478
x1 = 0.3821 | – | 1491 | 1479 | 1468
x1 = 0.4985 | 1494 | 1482 | 1470 | 1458
x1 = 0.595 | – | 1476 | 1464 | –
x1 = 0.6976 | 1484 | – | – | 1448
x1 = 0.7792 | 1482 | – | – | 1445
x1 = 0.8902 | 1480 | 1467 | 1454 | 1442
x1 = 1 | 1478 | 1464 | – | 1439
